Reference: patent publication US20250230193A1, “CYCLIC COMPOUND HAVING SELECTIVE KRAS INHIBITORY EFFECT ON HRAS AND NRAS” (CHUGAI SEIYAKU KABUSHIKI KAISHA, priority 2022, published 2025)

Columns and labels:
[1] = target: GDP-bound NRAS wild-type protein (Homo sapiens, UniProt P01111); assay: Binding to NRAS by surface plasmon resonance (SPR), Single Cycle Kinetics; details: SPR; KD ratio class
[2] = target: GDP-bound HRAS wild-type protein (Homo sapiens, UniProt P01112); assay: Binding to HRAS by surface plasmon resonance (SPR), Single Cycle Kinetics; details: SPR; KD ratio class
Chain of GDP-bound HRAS wild-type protein (P01112 whole entry): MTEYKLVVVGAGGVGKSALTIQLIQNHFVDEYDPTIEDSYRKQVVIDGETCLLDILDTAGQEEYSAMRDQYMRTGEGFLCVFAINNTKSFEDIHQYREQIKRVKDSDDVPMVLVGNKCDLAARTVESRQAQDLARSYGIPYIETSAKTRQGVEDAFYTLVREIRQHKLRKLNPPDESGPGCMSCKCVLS

[3] = test system: human lung cancer strain NCI-H441; assay: cells; details: NCI-H441, 96 h, read-out: NCI-H441 IC50 (nM)

Chain of GDP-bound NRAS wild-type protein (P01111 whole entry): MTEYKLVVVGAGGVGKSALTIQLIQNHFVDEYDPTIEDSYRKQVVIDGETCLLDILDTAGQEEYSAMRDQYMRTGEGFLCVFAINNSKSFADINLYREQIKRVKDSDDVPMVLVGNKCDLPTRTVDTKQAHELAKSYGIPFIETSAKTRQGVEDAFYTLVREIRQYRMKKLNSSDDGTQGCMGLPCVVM

IC50 [3]	SMILES	NRAS/KRAS (ratio of KD value for GDP-bound NRAS wild-type protein to KD value for KRAS) [1]	HRAS/KRAS (ratio of KD value for GDP-bound HRAS wild-type protein to KD value for KRAS) [2]
3.6 nM	CCO[C@@H]1C[C@H]2C(=O)NC3(CCCC3)C(=O)N(C)[C@@H](C3CCCC3)C(=O)N(C)[C@H](C(=O)N(C)C)CC(=O)N(C)[C@@H](CC)C(=O)N[C@@H]([C@@H](C)CC)C(=O)N(C)CC(=O)N(C)[C@H]3C[C@H](C)C(C)CN(C3=O)[C@@H](Cc3ccc(C(F)(F)F)cc3)C(=O)N(C)CC(=O)N[C@@H](CCc3cc(F)c(C(F)(F)F)c(F)c3)C(=O)N2C1 (stereo partly drawn) [PP1347]	B (a compound having 3 or more and less than 10 is denoted as B)	B (a compound having 3 or more and less than 10 is denoted as B)
92.5 nM	CCO[C@@H]1C[C@H]2C(=O)NC3(CCC3)C(=O)N(C)[C@@H](C(CC)CC)C(=O)N(C)[C@H](C(=O)N(C)C)CC(=O)N(C)[C@@H](CC(C)C)C(=O)N[C@@H]([C@@H](C)CC)C(=O)N(C)CC(=O)N(C)[C@H]3C/C=C\CCN(C3=O)[C@@H](Cc3ccc(C(F)(F)F)cc3)C(=O)N(C)CC(=O)N[C@@H](CCc3ccc4sccc4c3)C(=O)N2C1 [PP1225]	AA (a compound having 20 or more is denoted as AA)	A (a compound having 10 or more and less than 20 is denoted as A)
44.4 nM	CCO[C@@H]1C[C@H]2C(=O)NC3(CCC3)C(=O)N(C)[C@@H](C(CC)CC)C(=O)N(C)[C@H](C(=O)N(C)C)CC(=O)N(C)[C@@H](CC(C)C)C(=O)N[C@@H]([C@@H](C)CC)C(=O)N(C)CC(=O)N(C)[C@H]3C/C=C\CCN(C3=O)[C@@H](CC3CCC(F)(F)CC3)C(=O)N(C)CC(=O)N[C@@H](CCc3cc(F)c(C(F)(F)F)c(F)c3)C(=O)N2C1 [PP1433]	AA (a compound having 20 or more is denoted as AA)	A (a compound having 10 or more and less than 20 is denoted as A)
14.8 nM	CCO[C@@H]1C[C@H]2C(=O)NC3(CCC3)C(=O)N(C)[C@@H](C3CCCC3)C(=O)N(C)[C@H](C(=O)N(C)C)CC(=O)N(C)[C@@H](CC(C)C)C(=O)N[C@@H]([C@@H](C)CC)C(=O)N(C)CC(=O)N(C)[C@H]3C/C=C\CCN(C3=O)[C@@H](Cc3ccc(F)cc3C)C(=O)N(C)CC(=O)N[C@@H](CCc3cc(F)c(Cl)c(F)c3)C(=O)N2C1 [PP1481]	A (a compound having 10 or more and less than 20 is denoted as A)	B (a compound having 3 or more and less than 10 is denoted as B)
66.4 nM	CCO[C@@H]1C[C@H]2C(=O)NC3(CCC3)C(=O)N(C)[C@@H](C3CCCC3)C(=O)N(C)[C@H](C3CCCCC3)CC(=O)N(C)[C@@H](COC)C(=O)N[C@@H]([C@@H](C)CC)C(=O)N(C)CC(=O)N(C)[C@H]3C/C=C\CCN(C3=O)[C@@H](Cc3ccc(C(F)(F)F)cc3)C(=O)N(C)CC(=O)N[C@@H](CCc3cc(F)c(C(F)(F)F)c(F)c3)C(=O)N2C1 [PP1584]	B (a compound having 3 or more and less than 10 is denoted as B)	B (a compound having 3 or more and less than 10 is denoted as B)
23.1 nM	CCC[C@H]1C(=O)N[C@@H]([C@@H](C)CC)C(=O)N(C)CC(=O)N(C)[C@H]2C/C=C\CCN(C2=O)[C@@H](Cc2ccc(C(F)(F)F)cc2)C(=O)N(C)CC(=O)N[C@@H](CCc2cc(F)c(Cl)c(F)c2)C(=O)N2C[C@H](OCC)C[C@H]2C(=O)NC2(CCC2)C(=O)N(C)[C@@H](C(CC)CC)C(=O)N(C)[C@H](C(=O)N(C)C)CC(=O)N1C [PP1231]	AA (a compound having 20 or more is denoted as AA)	A (a compound having 10 or more and less than 20 is denoted as A)
31.4 nM	CCO[C@@H]1C[C@H]2C(=O)NC3(CCC3)C(=O)N(C)[C@@H](C3CCCC3)C(=O)N(C)[C@H](C(=O)N3CCOCC3)CC(=O)N(C)[C@@H](CC3CCCCC3)C(=O)N[C@@H]([C@@H](C)CC)C(=O)N(C)CC(=O)N(C)[C@H]3C/C=C\CCN(C3=O)[C@@H](Cc3ccc(C)cc3)C(=O)N(C)CC(=O)N[C@@H](CCc3cc(F)c(C(F)(F)F)c(F)c3)C(=O)N2C1 [PP1420]	A (a compound having 10 or more and less than 20 is denoted as A)	A (a compound having 10 or more and less than 20 is denoted as A)
143 nM	CCO[C@@H]1C[C@H]2C(=O)NC3(CCC3)C(=O)N(C)[C@@H](C(CC)CC)C(=O)N(C)[C@H](C(=O)N3CCOCC3)CC(=O)N(C)[C@@H](CC3CC3)C(=O)N[C@@H]([C@@H](C)CC)C(=O)N(C)CC(=O)N(C)[C@H]3C/C=C\CCN(C3=O)[C@@H](Cc3ccc(F)cc3)C(=O)N(C)CC(=O)N[C@@H](CCc3cc(F)c(C(F)(F)F)c(F)c3)C(=O)N2C1 [PP1527]	A (a compound having 10 or more and less than 20 is denoted as A)	A (a compound having 10 or more and less than 20 is denoted as A)
5.2 nM	CCO[C@@H]1C[C@H]2C(=O)NC3(CCC3)C(=O)N(C)[C@@H](C3CCCC3)C(=O)N(C)[C@H](C(=O)N(C)CC)CC(=O)N(C)[C@@H](CC3CCCC3)C(=O)N[C@@H]([C@@H](C)CC)C(=O)N(C)CC(=O)N(C)[C@H]3C/C=C\CCN(C3=O)[C@@H](Cc3ccc(C(F)(F)F)cc3)C(=O)N(C)CC(=O)N[C@@H](CCc3ccc(C(F)(F)F)c(OC)c3)C(=O)N2C1 [PP1573]	A (a compound having 10 or more and less than 20 is denoted as A)	A (a compound having 10 or more and less than 20 is denoted as A)
128 nM	CCO[C@@H]1C[C@H]2C(=O)NC3(CCC3)C(=O)N(C)[C@@H](C(CC)CC)C(=O)N(C)[C@H](C(=O)N(C)C)CC(=O)N(C)[C@@H](CC3CC3)C(=O)N[C@@H]([C@@H](C)CC)C(=O)N(C)CC(=O)N(C)[C@H]3C/C=C\CCN(C3=O)[C@@H](Cc3ccc(C(F)(F)F)cc3)C(=O)N(C)CC(=O)N[C@@H](CCc3ccc4sccc4c3)C(=O)N2C1 [PP1227]	A (a compound having 10 or more and less than 20 is denoted as A)	A (a compound having 10 or more and less than 20 is denoted as A)
7.1 nM	CC[C@H](C)[C@@H]1NC(=O)[C@H](CC)N(C)C(=O)C[C@@H](C(=O)N(C)C)N(C)C(=O)[C@H](C2CCCC2)N(C)C(=O)C2(CCCC2)NC(=O)[C@@H]2CCCN2C(=O)[C@H](CCc2cc(F)c(C(F)(F)F)c(F)c2)NC(=O)CN(C)C(=O)[C@H](Cc2ccc(C(F)(F)F)cc2)N2C[C@H](C)[C@H](C)C[C@@H](C2=O)N(C)C(=O)CN(C)C1=O [PP1364]	A (a compound having 10 or more and less than 20 is denoted as A)	B (a compound having 3 or more and less than 10 is denoted as B)
